In PubChem BioAssay AID2060358 (Molecular Pharmacology Branch, DTP, NCI, 2025):
pIC50: −log10 of the molar value.

Test system: 254851-301-R-J1-PDC spheroids, viability % test/control
Assay: Anticancer human tumor 254851-301-R-J1-PDC patient-derived colon carcinoma cell line growth inhibition [TAK]
Conditions: spheroids with HUVEC and MSC; for pIC50: curve of first compound; for viability, T/C: stronger effect = lower value
Text: Combinatorial screen of targeted agents with TAK-243 and ipatasertib in multi-cell type tumor spheroids
A high-throughput screen of multi-cell type tumor spheroids was designed to identify active combinations of targeted small molecules and TAK-243 or ipatasertib. Complex spheroids include a stromal component modeled by human endothelial cells (HUVEC) and fibroblasts modeled by human mesenchymal stem cells (MSCs). The concentration ranges selected for each drug and investigational agent were based upon clinically achievable concentrations if the clinical Cmax of the agent was known.
Compounds. The drugs and investigational agents: TAK-243 (785004), ipatasertib (767898), everolimus (733504), selumetinib (741078), bortezomib (756655), trametinib (758246), ixazomib (758254), vemurafenib (761431), dabrafenib (764134), sapanisertib (764658), alpelisib (765974), and copanlisib (816437), were obtained from the National Cancer Institute (NCI) Developmental Therapeutics Program Chemical Repository. The FDA-approved anticancer drug set is available from the NCI Developmental Therapeutics Program. […] The stock solutions were prepared in dimethyl sulfoxide (DMSO, Sigma-Aldrich, St. Louis, MO, cat. D2650) at 800-fold the tested concentration and stored at -70 degrees C prior to their use. All drugs and investigational agents were tested over a range starting from a high concentration at or near the clinical Cmax and decreasing in half-log increments. If the clinical Cmax for an agent had not been determined, the highest concentration tested was 10 microM.
NCI60 Cell Culture. NCI60 cell lines were obtained from the NCI Developmental Therapeutics Program Tumor Repository. For each lot of cells, the Repository performed Applied Biosystems AmpFLSTR Identifiler testing with PCR amplification to confirm consistency with the published Identifier STR profile for each cell line. Cells were kept in continuous culture for no more than 20 passages. The optimal seeding densities for each of the cell lines at each time point assessed were determined prior to performing the concentration response studies. Briefly, the NCI60 human tumor lines were grown as monolayers in RPMI 1640 medium supplemented with 10% FBS and 2 mmol/L L-glutamine.
An additional 2 lines were from the NCI60 cell line panel including melanomas, MALME-3M and SK-MEL-2. Pooled donor human umbilical vein endothelial cells (HUVEC, Lonza, cat. CC-2519) and human mesenchymal stem cells (hMSC, Lonza, cat. PT-2501) were purchased from Lonza (Walkersville, MD).
PDMR cell lines were grown in complete medium (DC medium): Dulbecco's modified Eagle's medium (DMEM)/F12 supplemented with 5% fetal bovine serum (FBS), 2 mM L-glutamine, 100 U/mL penicillin and 100 µg/ml streptomycin, 0.4 µg/ml hydrocortisone, 10 ng/ml epidermal growth factor (EGF) recombinant human protein, 24 µg/mL adenine, and 0.1 mg/mL primocin. During culture from frozen stock vials, PDMR cells were cultured in the same medium containing 10 µM Y-27632 (see Table 3). The PDCs were cultured in complete DMEM/F12 media without 10 microM Y-27632 dihydrochloride for at least two passages prior to the screen. The pooled donor HUVEC and hMSC were cultured in endothelial cell growth medium 2 (PromoCell, Heidelberg, Germany, cat. C-22011) and mesenchymal stem cell growth medium 2 (PromoCell, cat. C-28009), respectively. For all experiments, HUVEC and hMSC were used at passages </=5.
For the pre-screen, cell seeding densities were determined from a titration spanning the range from 5,000 to 313 cells per well. The mct-spheroids including 60% malignant cells, 25% HUVEC and 15% MSC dispensed as a mixture into U-bottom Ultra-Low Attachment 384-well plates (Corning, NY)
High-throughput Drug Combination Screening.
Prior to their inoculation into 384-well plates, malignant cells, HUVEC, and hMSC were removed from T flasks using TrypLE express (Thermo Fisher Scientific, cat. 12605036) and harvested by centrifugation for 5 min at 233 x g. […]
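Note: spheroids exposed to drugs for seven days before viability readout.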

CC(C)CC(NC(=O)C(Cc1ccccc1)NC(=O)c1cnccn1)B(O)O (stereo not given) + CC(C)NCC(C(=O)N1CCN(c2ncnc3c2C(C)CC3O)CC1)c1ccc(Cl)cc1
pIC50 (second compound 0.3 µM): < 8.00
pIC50 (second compound 0.949 µM): < 8.00
pIC50 (second compound 3 µM): < 8.00
pIC50 (second compound 9.49 µM): < 8.00
pIC50 (second compound 30 µM): < 8.00
viability, T/C (second compound 0.3 µM, first compound 31.6 pM): 118%
viability, T/C (second compound 0.3 µM, first compound 0.0001 µM): 124%
viability, T/C (second compound 0.3 µM, first compound 0.000316 µM): 109%
viability, T/C (second compound 0.3 µM, first compound 0.001 µM): 112%
viability, T/C (second compound 0.3 µM, first compound 0.00316 µM): 103%
viability, T/C (second compound 0.3 µM, first compound 0.01 µM): 79.9%
viability, T/C (second compound 0.949 µM, first compound 31.6 pM): 112%
viability, T/C (second compound 0.949 µM, first compound 0.0001 µM): 114%
viability, T/C (second compound 0.949 µM, first compound 0.000316 µM): 101%
viability, T/C (second compound 0.949 µM, first compound 0.001 µM): 107%
viability, T/C (second compound 0.949 µM, first compound 0.00316 µM): 103%
viability, T/C (second compound 0.949 µM, first compound 0.01 µM): 87.9%
viability, T/C (second compound 3 µM, first compound 31.6 pM): 108%
viability, T/C (second compound 3 µM, first compound 0.0001 µM): 114%
viability, T/C (second compound 3 µM, first compound 0.000316 µM): 110%
viability, T/C (second compound 3 µM, first compound 0.001 µM): 109%
viability, T/C (second compound 3 µM, first compound 0.00316 µM): 111%
viability, T/C (second compound 3 µM, first compound 0.01 µM): 86.6%
viability, T/C (second compound 9.49 µM, first compound 31.6 pM): 106%
viability, T/C (second compound 9.49 µM, first compound 0.0001 µM): 110%
viability, T/C (second compound 9.49 µM, first compound 0.000316 µM): 112%
viability, T/C (second compound 9.49 µM, first compound 0.001 µM): 104%
viability, T/C (second compound 9.49 µM, first compound 0.00316 µM): 99%
viability, T/C (second compound 9.49 µM, first compound 0.01 µM): 81.4%
viability, T/C (second compound 30 µM, first compound 31.6 pM): 90.3%
viability, T/C (second compound 30 µM, first compound 0.0001 µM): 98.9%
viability, T/C (second compound 30 µM, first compound 0.000316 µM): 94.4%
viability, T/C (second compound 30 µM, first compound 0.001 µM): 89%
viability, T/C (second compound 30 µM, first compound 0.00316 µM): 85.7%
viability, T/C (second compound 30 µM, first compound 0.01 µM): 71%

Cn1cnc2c(F)c(Nc3ccc(Br)cc3Cl)c(C(=O)NOCCO)cc21 + CC(C)NCC(C(=O)N1CCN(c2ncnc3c2C(C)CC3O)CC1)c1ccc(Cl)cc1
pIC50 (second compound 0.3 µM): 5.80
pIC50 (second compound 0.949 µM): 5.79
pIC50 (second compound 3 µM): 5.79
pIC50 (second compound 9.49 µM): 5.81
pIC50 (second compound 30 µM): 5.85
viability, T/C (second compound 0.3 µM, first compound 0.00949 µM): 110%
viability, T/C (second compound 0.3 µM, first compound 0.03 µM): 120%
viability, T/C (second compound 0.3 µM, first compound 0.0949 µM): 110%
viability, T/C (second compound 0.3 µM, first compound 0.3 µM): 108%
viability, T/C (second compound 0.3 µM, first compound 0.949 µM): 77.5%
viability, T/C (second compound 0.3 µM, first compound 3 µM): 16.6%
viability, T/C (second compound 0.949 µM, first compound 0.00949 µM): 111%
viability, T/C (second compound 0.949 µM, first compound 0.03 µM): 108%
viability, T/C (second compound 0.949 µM, first compound 0.0949 µM): 118%
viability, T/C (second compound 0.949 µM, first compound 0.3 µM): 88.7%
viability, T/C (second compound 0.949 µM, first compound 0.949 µM): 78.9%
viability, T/C (second compound 0.949 µM, first compound 3 µM): 19.6%
viability, T/C (second compound 3 µM, first compound 0.00949 µM): 101%
viability, T/C (second compound 3 µM, first compound 0.03 µM): 118%
viability, T/C (second compound 3 µM, first compound 0.0949 µM): 115%
viability, T/C (second compound 3 µM, first compound 0.3 µM): 105%
viability, T/C (second compound 3 µM, first compound 0.949 µM): 79.1%
viability, T/C (second compound 3 µM, first compound 3 µM): 17.6%
viability, T/C (second compound 9.49 µM, first compound 0.00949 µM): 103%
viability, T/C (second compound 9.49 µM, first compound 0.03 µM): 114%
viability, T/C (second compound 9.49 µM, first compound 0.0949 µM): 112%
viability, T/C (second compound 9.49 µM, first compound 0.3 µM): 102%
viability, T/C (second compound 9.49 µM, first compound 0.949 µM): 75.2%
viability, T/C (second compound 9.49 µM, first compound 3 µM): 15.3%
viability, T/C (second compound 30 µM, first compound 0.00949 µM): 84.6%
viability, T/C (second compound 30 µM, first compound 0.03 µM): 92.4%
viability, T/C (second compound 30 µM, first compound 0.0949 µM): 105%
viability, T/C (second compound 30 µM, first compound 0.3 µM): 83.9%
viability, T/C (second compound 30 µM, first compound 0.949 µM): 72.4%
viability, T/C (second compound 30 µM, first compound 3 µM): 8.88%
